Experimental data reported in ChEMBL document CHEMBL1156422 (J Biol Chem, 2007).
Active and inactive are the calls of the source. The rule behind the calls is not given here.

Tests used:
[1] = target: Serine/threonine-protein kinase PLK1 (Homo sapiens, UniProt P53350); experiment: Inhibition of AX-7503 binding to recombinant Plk1 by Western blot
[2] = target: T1, Serine/threonine-protein kinase PLK3 (Homo sapiens, UniProt Q9H4B4); experiment: Inhibition of AX-7503 binding to recombinant Plk3 expressed in HeLa cells by Western blot; assay type: cell-based
Target sequence in this assay (Q9H4B4 whole entry): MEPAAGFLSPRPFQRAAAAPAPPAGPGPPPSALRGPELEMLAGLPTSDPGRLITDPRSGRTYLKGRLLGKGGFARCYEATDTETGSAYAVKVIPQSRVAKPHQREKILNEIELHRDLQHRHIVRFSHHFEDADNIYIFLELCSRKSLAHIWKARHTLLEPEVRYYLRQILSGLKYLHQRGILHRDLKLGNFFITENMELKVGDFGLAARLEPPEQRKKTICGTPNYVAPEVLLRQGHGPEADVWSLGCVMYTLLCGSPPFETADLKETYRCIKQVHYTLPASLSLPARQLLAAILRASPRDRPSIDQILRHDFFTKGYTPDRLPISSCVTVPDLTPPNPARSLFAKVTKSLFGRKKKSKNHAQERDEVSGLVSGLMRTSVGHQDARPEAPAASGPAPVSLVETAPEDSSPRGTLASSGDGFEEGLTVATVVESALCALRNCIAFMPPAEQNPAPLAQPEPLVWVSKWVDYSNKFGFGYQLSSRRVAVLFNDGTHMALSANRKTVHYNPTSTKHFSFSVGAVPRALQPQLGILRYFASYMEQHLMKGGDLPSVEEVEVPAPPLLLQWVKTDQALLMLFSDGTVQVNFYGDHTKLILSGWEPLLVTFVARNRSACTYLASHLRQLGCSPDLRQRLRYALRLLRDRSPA

[3] = target: T1, Serine/threonine-protein kinase PLK3; experiment: Inhibition of recombinant Plk3 assessed as casein substrate phosphorylation
Target sequence in this assay (Q9H4B4 whole entry): as above

[4] = target: Serine/threonine-protein kinase PLK2 (Homo sapiens) (UniProt Q9NYY3); experiment: Inhibition of AX-7503 binding to recombinant Plk2 at 1 uM by Western blot
Sequence of Serine/threonine-protein kinase PLK2 (Homo sapiens) (Q9NYY3 whole entry, looked up): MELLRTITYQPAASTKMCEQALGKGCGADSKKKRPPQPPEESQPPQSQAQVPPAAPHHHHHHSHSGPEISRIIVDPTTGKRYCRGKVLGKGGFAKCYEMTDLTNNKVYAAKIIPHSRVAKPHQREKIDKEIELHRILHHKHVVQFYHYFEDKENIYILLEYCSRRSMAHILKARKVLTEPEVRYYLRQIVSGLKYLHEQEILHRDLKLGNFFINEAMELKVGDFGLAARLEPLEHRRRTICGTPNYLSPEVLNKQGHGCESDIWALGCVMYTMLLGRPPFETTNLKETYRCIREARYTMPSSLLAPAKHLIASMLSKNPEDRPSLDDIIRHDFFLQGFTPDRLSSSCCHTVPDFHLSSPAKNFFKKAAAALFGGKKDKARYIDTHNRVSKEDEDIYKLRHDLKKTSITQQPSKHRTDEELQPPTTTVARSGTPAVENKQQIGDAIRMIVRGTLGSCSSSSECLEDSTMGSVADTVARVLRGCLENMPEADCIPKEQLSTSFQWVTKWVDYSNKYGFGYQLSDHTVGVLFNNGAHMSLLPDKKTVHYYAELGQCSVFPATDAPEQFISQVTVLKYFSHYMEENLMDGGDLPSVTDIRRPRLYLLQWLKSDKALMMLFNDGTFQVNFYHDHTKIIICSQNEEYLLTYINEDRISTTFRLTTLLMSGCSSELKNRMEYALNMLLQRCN

[5] = target: T1, Serine/threonine-protein kinase PLK3; experiment: Inhibition of Plk3 in human A549 cells assessed as casein substrate phosphorylation by Western blot; assay type: cell-based
Target sequence in this assay (Q9H4B4 whole entry): as the sequence (Q9H4B4 whole entry) above

[6] = target: T1, Serine/threonine-protein kinase PLK3; experiment: Inhibition of recombinant Plk3 expressed in human GM00637 cells at 1 uM assessed as decrease in p53 serine-20 phosphorylation; assay type: cell-based
Target sequence in this assay (Q9H4B4 whole entry, looked up): as the sequence (Q9H4B4 whole entry) above

[7] = target: T1, Serine/threonine-protein kinase PLK3; experiment: Inhibition of recombinant Plk3 expressed in human GM00637 cells at 1 uM; assay type: cell-based
Target sequence in this assay (Q9H4B4 whole entry, looked up): as the sequence (Q9H4B4 whole entry) above

Sequence of Serine/threonine-protein kinase PLK1 (P53350 whole entry): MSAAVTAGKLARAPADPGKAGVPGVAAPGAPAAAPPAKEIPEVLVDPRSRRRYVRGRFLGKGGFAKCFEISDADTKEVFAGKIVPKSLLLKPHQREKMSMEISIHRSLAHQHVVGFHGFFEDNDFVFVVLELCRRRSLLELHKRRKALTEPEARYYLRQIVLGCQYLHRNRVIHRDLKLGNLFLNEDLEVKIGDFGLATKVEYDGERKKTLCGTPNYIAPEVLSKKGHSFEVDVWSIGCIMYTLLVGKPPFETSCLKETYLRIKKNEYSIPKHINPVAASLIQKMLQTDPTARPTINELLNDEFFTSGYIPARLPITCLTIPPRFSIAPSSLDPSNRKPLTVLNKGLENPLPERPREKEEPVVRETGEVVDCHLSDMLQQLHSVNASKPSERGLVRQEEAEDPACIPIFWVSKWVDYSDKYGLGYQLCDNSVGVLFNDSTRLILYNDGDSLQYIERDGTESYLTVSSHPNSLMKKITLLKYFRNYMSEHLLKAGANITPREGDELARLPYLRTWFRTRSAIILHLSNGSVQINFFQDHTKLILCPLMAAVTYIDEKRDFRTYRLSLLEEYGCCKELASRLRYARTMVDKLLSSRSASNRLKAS

| Compound | IC50 [1] | IC50 [2] | IC50 [3] | Activity [4] | IC50 [5] | Activity [6] | inhibition [7] |
| --- | --- | --- | --- | --- | --- | --- | --- |
| O=c1cc(N2CCOCC2)oc2c(-c3ccccc3)cccc12 [LY-294002] | 2100 nM | 3000 nM | 88000 nM | – | – | – | – |
| COC[C@H]1OC(=O)c2coc3c2[C@@]1(C)C1=C(C3=O)[C@@H]2CCC(=O)[C@@]2(C)C[C@H]1OC(C)=O [WORTMANNIN] | – | 49 nM | 48 nM | Active | 220 nM | Active | 75% |
